# Experimental data taken from EP4782008A1 (priority 2023, dated 2025).
# Columns and labels:
# [1] = background statement; cited from earlier work
# [2] = background statement; cited from earlier work; remark: listed apart in the source
# hERG = hERG (Homo sapiens, UniProt Q12809); details: background statement; cited from earlier work
# [3] = background statement; cited from earlier work; remark: listed apart in the source
# [4] = Pharmacokinetics following single oral administration; assay type: in vivo, healthy Chinese subjects; details: for AUC(0-inf) / peak plasma drug concentration: empty stomach
# Protocol: Trial design: single-center, randomized, double-blind, placebo-controlled, dose-escalation, single administration. Number of subjects: Planned enrollment: 52 subjects, Final analysis: 51 subjects.
# • Specifications: 0.5 mg/tablet, 1 mg/tablet, 2 mg/tablet, prepared according to the method of Example 1; • Dose: 0.5 mg, 1 mg, 2 mg, 4 mg, 8 mg, 12 mg. • Administration method: Single-dose, taken with an appropriate amount of water (240 mL).
# Evaluation indicators of pharmacokinetic parameters: Time to peak (Tmax), peak concentration (Cmax), area under the plasma concentration time curve from 0 to t (AUC0-t), area under the plasma concentration time curve from 0 to infinity (AUC0-∞), elimination rate constant (λz), half-life period (t1/2), total clearance/bioavailability (CL/F), apparent volume of distribution/bioavailability (Vd/F).
# Pharmacokinetic analysis: Pharmacokinetic parameters were calculated using the non-compartmental analysis (NCA) and Phoenix WinNonlin 7.0 data analysis software. Descriptive statistical analysis was performed on pharmacokinetic parameters, providing the number of subjects, arithmetic mean, standard deviation, minimum, median, maximum, and coefficient of variation (CV). Tmax was expressed as median (minimum - maximum). AUC and Cmax belong to a log-normal distribution. The geometric mean was also provided. The relationship between administered dose and drug plasma exposure was evaluated by plotting scatter plots of log-transformed pharmacokinetic parameters (AUC and Cmax) in relation to log dose. Furthermore, the Power model method was used to further explore the linear analysis of administered dose and drug plasma exposure.
# A single dose of the tablets of the compound of formula (I) was administered orally to healthy volunteers on empty stomach. […] When the administered doses were 1 mg, 2 mg, 4 mg, 8 mg, and 12 mg, the peak plasma drug concentrations were 1.19 ng/mL, 2.43 ng/mL, 8.61 ng/mL, 16.4 ng/mL, and 23.5 ng/mL, respectively, and the AUC0-∞ were 14.7 h·ng/mL, 29.8 h·ng/mL, 69.4 h·ng/mL, 135 h·ng/mL, and 220 h·ng/mL, respectively. […] Within the dose range of 1 mg-12 mg, Cmax and AUC0-∞ increased with increasing administered dose, and the increase ratio in AUC0-∞ was basically consistent with the dose increase ratio. The inter-individual variability of plasma drug exposure is around 30%.
# Sequence of hERG (Q12809 whole entry): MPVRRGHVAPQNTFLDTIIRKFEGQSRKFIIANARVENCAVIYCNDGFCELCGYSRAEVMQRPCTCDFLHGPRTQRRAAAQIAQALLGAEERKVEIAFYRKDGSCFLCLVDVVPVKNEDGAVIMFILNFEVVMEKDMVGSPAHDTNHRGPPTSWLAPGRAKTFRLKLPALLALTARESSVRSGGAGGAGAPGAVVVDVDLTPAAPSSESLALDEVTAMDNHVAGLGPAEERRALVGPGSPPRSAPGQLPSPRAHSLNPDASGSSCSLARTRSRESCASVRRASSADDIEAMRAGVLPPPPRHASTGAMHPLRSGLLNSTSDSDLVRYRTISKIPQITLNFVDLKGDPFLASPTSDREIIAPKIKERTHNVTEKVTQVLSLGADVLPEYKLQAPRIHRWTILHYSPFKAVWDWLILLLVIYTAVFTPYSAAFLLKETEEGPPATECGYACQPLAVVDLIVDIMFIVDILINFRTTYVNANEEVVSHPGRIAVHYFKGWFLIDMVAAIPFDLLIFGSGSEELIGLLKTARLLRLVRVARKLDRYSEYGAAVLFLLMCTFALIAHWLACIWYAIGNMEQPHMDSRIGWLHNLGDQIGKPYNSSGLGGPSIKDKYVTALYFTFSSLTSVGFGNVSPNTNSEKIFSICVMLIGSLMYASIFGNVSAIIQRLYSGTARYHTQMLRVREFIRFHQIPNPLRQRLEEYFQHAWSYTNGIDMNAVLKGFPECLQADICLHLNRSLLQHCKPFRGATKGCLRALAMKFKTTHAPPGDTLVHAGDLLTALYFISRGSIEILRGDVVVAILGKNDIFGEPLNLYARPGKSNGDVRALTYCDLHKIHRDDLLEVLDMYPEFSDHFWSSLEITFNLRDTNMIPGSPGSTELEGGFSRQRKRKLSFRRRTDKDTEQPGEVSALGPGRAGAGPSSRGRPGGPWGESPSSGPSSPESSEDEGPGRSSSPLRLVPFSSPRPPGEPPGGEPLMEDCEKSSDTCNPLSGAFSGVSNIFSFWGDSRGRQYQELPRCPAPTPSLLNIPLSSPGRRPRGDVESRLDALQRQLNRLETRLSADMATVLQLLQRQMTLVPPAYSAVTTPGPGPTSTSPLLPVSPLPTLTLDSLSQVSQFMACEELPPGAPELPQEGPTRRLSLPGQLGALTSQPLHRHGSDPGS
structure (smiles),measurement,setting,value
"COc1cc2c(cc1OC)C(=O)C(CC1(F)CCN(Cc3ccccc3F)CC1)C2 (stereo not shown) [compound of formula (I), 2-(4-fluoro-(1-(2-fluorobenzyl))piperidin-4-yl-methyl)-5,6-dimethoxy-2,3-dihydro-1-indanone]",drug concentration in brain tissue relative to the plasma drug concentration,[1],4.4 times
same,genetic toxicity,[2],no
same,hERG toxicity,hERG,no
same,oral bioavailability,[3],high
same,AUC(0-inf),"[4]; human, plasma, single oral dose 1 mg",14.7 ng·h/mL
same,AUC(0-inf),"[4]; human, plasma, single oral dose 2 mg",29.8 ng·h/mL
same,AUC(0-inf),"[4]; human, plasma, single oral dose 4 mg",69.4 ng·h/mL
same,AUC(0-inf),"[4]; human, plasma, single oral dose 8 mg",135 ng·h/mL
same,AUC(0-inf),"[4]; human, plasma, single oral dose 12 mg",220 ng·h/mL
same,half-life,"[4]; human, plasma, single oral dose of tablets on empty stomach, range over dose groups, read-out: mean plasma drug elimination half-life period",14.2 to 32.1 h
same,inter-individual variability of plasma drug exposure,[4]; single oral dose,around 30%
same,peak plasma drug concentration,[4]; single oral dose 1 mg,1.19 ng/mL
same,peak plasma drug concentration,[4]; single oral dose 2 mg,2.43 ng/mL
same,peak plasma drug concentration,[4]; single oral dose 4 mg,8.61 ng/mL
same,peak plasma drug concentration,[4]; single oral dose 8 mg,16.4 ng/mL
same,peak plasma drug concentration,[4]; single oral dose 12 mg,23.5 ng/mL
